Legend:
[1] = biological target: T1, rhPSMA (Homo sapiens (Human), UniProt Q04609); test: Tests for inhibitory activity against PSMA (Test Example 1); type: biochemical; settings: rhPSMA 50 ng/well, substrate N-Acetyl-Asp-Glu, 37° C. 1 h
Method: • 1. Multifunctional microplate reader (SPARK, TECAN) • 2. rhPSMA (R&D, 4234-ZN) • 3. N-Acetyl-Asp-Glu (Sigma, A5930) • 4. OPA (Sigma, P0657)
PSMA inhibitors can bind to the enzyme PSMA to prevent the enzyme PSMA from decomposing the substrate N-Acetyl-Asp-Glu. In this experiment, the extent to which the substrate was decomposed and the resulting ultraviolet absorption changes were measured to evaluate the capacities of the PSMA inhibitors to bind to the enzyme PSMA, and the activity of the compounds was evaluated with IC50 values.
(§1) Buffer 1 (50 mM HEPES, 0.1 M NaCl, pH 7.5) was used to prepare a 0.4 μg/mL rhPSMA solution and a 40 μM solution of the substrate N-Acetyl-Asp-Glu. rhPSMA was mixed with the small molecules to be tested in a 96-well plate, with a constant rhPSMA content of 50 ng/well maintained. Meanwhile, the small molecules were step-wise diluted to final concentrations of 1 μM, 100 nM, 33.3 nM, 11.1 nM, 3.7 nM, 1.2 nM, 0.41 nM, 0.137 nM, 0.045 nM, and 0 nM. In addition, a positive control was set up using PSMA-617. The rhPSMA-small molecules were taken at 40 μL/well and well mixed with the 40 μM solution of the substrate N-Acetyl-Asp-Glu (40 μL/well). The mixtures were incubated at 37° C. in the dark for 1 h, were heated at 70° C. for 5 min to quench the reactions, and were cooled to room temperature. Buffer 2 (0.2 M NaOH, 0.1% beta-Mercaptoethanol) was used to prepare a 15 mM OPA solution. The OPA solution was added to the reaction systems at 80 μL/well and well mixed, and then the plate was incubated at room temperature for 10 min. The mixtures were taken at 100 μL/well and added to a 96-well Flat Black. With the excitation wavelength set to 330 nm and the emission wavelength to 465 nm, the intensity of signals was measured. IC50 values were obtained from dose-response curves.
The capacities of the compounds of the present disclosure to bind to the enzyme GCPII can be measured through the assay described above.

[2] = biological target: T1, rhPSMA; test: Affinity assays using enzyme activity method (Test Example 2); type: biochemical; settings: for Ratio to PSMA-617: ratio of IC50 values; for IC50: rhPSMA 50 ng/well, substrate N-Acetyl-Asp-Glu, 37° C. 1 h
Method: as §1

T1 sequence (Q04609 44-750): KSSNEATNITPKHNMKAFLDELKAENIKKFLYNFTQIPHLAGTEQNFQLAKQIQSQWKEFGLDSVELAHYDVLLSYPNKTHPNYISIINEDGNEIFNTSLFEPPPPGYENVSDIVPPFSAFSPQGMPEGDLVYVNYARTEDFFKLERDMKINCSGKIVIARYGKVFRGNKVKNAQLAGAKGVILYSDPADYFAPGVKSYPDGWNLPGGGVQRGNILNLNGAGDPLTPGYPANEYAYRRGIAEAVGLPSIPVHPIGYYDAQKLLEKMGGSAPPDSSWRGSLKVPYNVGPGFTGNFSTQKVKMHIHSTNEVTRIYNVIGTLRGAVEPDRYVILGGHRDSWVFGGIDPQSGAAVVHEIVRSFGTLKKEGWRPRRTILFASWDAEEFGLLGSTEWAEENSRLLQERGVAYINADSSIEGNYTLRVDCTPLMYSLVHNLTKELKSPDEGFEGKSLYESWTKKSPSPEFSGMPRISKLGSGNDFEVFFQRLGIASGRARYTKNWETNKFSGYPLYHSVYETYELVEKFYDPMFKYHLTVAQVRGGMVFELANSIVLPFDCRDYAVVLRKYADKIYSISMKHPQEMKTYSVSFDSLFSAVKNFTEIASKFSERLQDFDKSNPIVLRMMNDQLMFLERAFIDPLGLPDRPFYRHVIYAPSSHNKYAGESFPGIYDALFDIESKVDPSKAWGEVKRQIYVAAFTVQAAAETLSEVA

SMILES | IC50 [1] | affinity, comparison in words ([2]; enzyme activity experiment, FIG. 1) | Ratio to PSMA-617 [2] | IC50 [2]
NCc1ccc(C(=O)Nc2cccc(C(=O)NCCCC[C@H](NC(=O)N[C@@H](CCC(=O)O)C(=O)O)C(=O)O)n2)cc1 | 2.42 nM |  |  | 
O=C(O)CC[C@H](NC(=O)N[C@@H](CCCCNC(=O)[C@H](Cc1ccc2ccccc2c1)NC(=O)[C@H]1CC[C@]2(CC1)CN(C(=O)CN1CCN(CC(=O)O)CCN(CC(=O)O)CCN(CC(=O)O)CC1)CCO2)C(=O)O)C(=O)O [Example 9, (((S)-1-carboxy-5-((S)-3-(2-naphthyl)-2-((6S,9r)-4-(2-(4,7,10-tris(carboxymethyl)-1,4,7,10-tetraazacyclododecanyl)acetyl)-1-oxa-4-azaspiro[5.5]undecane-9-carboxamido)propanamido)pentyl)carbamoyl)-L-glutamic acid] |  | better affinity than compound x of Example 11 | 0.74 | 1.23 nM
O=C(O)CC[C@H](NC(=O)N[C@@H](CCCCNC(=O)[C@H](Cc1ccc2ccccc2c1)NC(=O)[C@H]1CC[C@@]2(CC1)CN(C(=O)CN1CCN(CC(=O)O)CCN(CC(=O)O)CCN(CC(=O)O)CC1)CCO2)C(=O)O)C(=O)O [Example 11, (((S)-1-carboxy-5-((S)-3-(2-naphthyl)-2-((6R,9s)-4-(2-(4,7,10-tris(carboxymethyl)-1,4,7,10-tetraazacyclododecanyl)acetyl)-1-oxa-4-azaspiro[5.5]undecane-9-carboxamido)propanamido)pentyl)carbamoyl)-L-glutamic acid] |  |  | 7.85 | 13 nM
